ChEMBL document CHEMBL1201862, “PubChem BioAssay data set” (2004)
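Briefly, cells in 96-well plates were exposed to five compound concentrations for 48 h, and endpoints were estimated by linear interpolation. The concentration for 50% growth inhibition is given as GI50.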 Activity calls are given as the source filed them. No stated cut-off is given here; in the data, active = GI50 up to about 1.1 µM and inactive = higher.

Columns and labels:
Assay in all cases: inhibition of tumour cell growth, NCI panel, 48 h
786-0 = system: 786-0
A498 = system: A498
A549 = system: A549
ACHN = system: ACHN
BT-549 = system: BT-549
CAKI-1 = system: CAKI-1
COLO 205 = system: COLO 205
DU-145 = system: DU-145
EKVX = system: EKVX
HCC 2998 = system: HCC 2998
HCT-116 = system: HCT-116
HCT-15 = system: HCT-15
HL-60 = system: HL-60
HOP-62 = system: HOP-62
HOP-92 = system: HOP-92
HT-29 = system: HT-29
Hs-578T = system: Hs-578T
IGROV-1 = system: IGROV-1
K562 = system: K562
KM12 = system: KM12
LOX IMVI = system: LOX IMVI
M14 = system: M14
MCF7 = system: MCF7
MDA-MB-231 = system: MDA-MB-231
MDA-MB-435 = system: MDA-MB-435
MDA-N = system: MDA-N
Malme-3M = system: Malme-3M
NCI-H226 = system: NCI-H226
NCI-H23 = system: NCI-H23
NCI-H460 = system: NCI-H460
NCI/ADR-RES = system: NCI/ADR-RES
OVCAR-3 = system: OVCAR-3
OVCAR-4 = system: OVCAR-4
OVCAR-5 = system: OVCAR-5
OVCAR-8 = system: OVCAR-8
PC-3 = system: PC-3
RPMI-8226 = system: RPMI-8226
RXF 393 = system: RXF 393
SF-268 = system: SF-268
SF-295 = system: SF-295
SF-539 = system: SF-539
SK-MEL-28 = system: SK-MEL-28
SK-MEL-2 = system: SK-MEL-2
SK-MEL-5 = system: SK-MEL-5
SK-OV-3 = system: SK-OV-3
SN12C = system: SN12C
SNB-19 = system: SNB-19
SNB-75 = system: SNB-75
SW-620 = system: SW-620
T47D = system: T47D
TK-10 = system: TK-10
U-251 = system: U-251
UACC-257 = system: UACC-257
UACC-62 = system: UACC-62
UO-31 = system: UO-31
CCRF-CEM = system: CCRF-CEM
MOLT-4 = system: MOLT-4
NCI-H522 = system: NCI-H522
SR = system: SR

What does the source list for `COc1ccc(-c2cc(-c3ccccc3)c3c(n2)-c2ccccc2NC(=O)C3)cc1`?
GI50 (786-0): 29 µM (inactive); GI50 (A498): > 100 µM (inactive); GI50 (A549): 49.4 µM (inactive); GI50 (ACHN): 35.1 µM (inactive); GI50 (BT-549): > 100 µM (inactive); GI50 (CAKI-1): 40.9 µM (inactive); GI50 (COLO 205): > 100 µM (inactive); GI50 (DU-145): > 100 µM (inactive); GI50 (EKVX): 40.3 µM (inactive); GI50 (HCC 2998): 53 µM (inactive); GI50 (HCT-116): 25.5 µM (inactive); GI50 (HCT-15): 17.7 µM; GI50 (HL-60): > 100 µM (inactive); GI50 (HOP-62): 36 µM (inactive); GI50 (HOP-92): 27 µM (inactive); GI50 (HT-29): 12.1 µM (inactive); GI50 (Hs-578T): 5.15 µM (inactive); GI50 (IGROV-1): 13.8 µM (inactive); GI50 (K562): 1.47 µM (inactive); GI50 (KM12): 35.4 µM (inactive); GI50 (LOX IMVI): 65.6 µM (inactive); GI50 (M14): 71 µM (inactive); GI50 (MCF7): 39.4 µM (inactive); GI50 (MDA-MB-231): 25.4 µM (inactive); GI50 (MDA-MB-435): > 100 µM (inactive); GI50 (MDA-N): 30 µM (inactive); GI50 (Malme-3M): 17.4 µM (inactive); GI50 (NCI-H226): 58.2 µM (inactive); GI50 (NCI-H23): > 100 µM (inactive); GI50 (NCI-H460): 25.9 µM (inactive); GI50 (NCI/ADR-RES): 36.5 µM (inactive); GI50 (OVCAR-3): 30.1 µM (inactive); GI50 (OVCAR-4): 3.64 µM (inactive); GI50 (OVCAR-5): > 100 µM (inactive); GI50 (OVCAR-8): 9.66 µM (inactive); GI50 (PC-3): 28.3 µM (inactive); GI50 (RPMI-8226): > 100 µM (inactive); GI50 (RXF 393): 30.2 µM (inactive); GI50 (SF-268): 23.7 µM (inactive); GI50 (SF-295): 47.5 µM (inactive); GI50 (SF-539): > 100 µM (inactive); GI50 (SK-MEL-28): > 100 µM (inactive); GI50 (SK-MEL-2): 32.7 µM (inactive); GI50 (SK-MEL-5): 23.8 µM (inactive); GI50 (SK-OV-3): 39.9 µM (inactive); GI50 (SN12C): 58.6 µM (inactive); GI50 (SNB-19): 34.7 µM (inactive); GI50 (SNB-75): 1.19 µM (inactive); GI50 (SW-620): > 100 µM (inactive); GI50 (T47D): 74 µM (inactive); GI50 (TK-10): 41.8 µM (inactive); GI50 (U-251): 22.5 µM (inactive); GI50 (UACC-257): > 100 µM (inactive); GI50 (UACC-62): 98.2 µM (inactive); GI50 (UO-31): > 100 µM (inactive)

With `Cc1ccc(C)n1-n1c(Cc2ccccc2)n[nH]c1=O` as the compound, how does the GI50 (786-0) read?
Its GI50 is > 100 µM (inactive).

And the GI50 (A498)?
Its GI50 is > 100 µM (inactive).

What about the GI50 (A549) of the same compound?
The GI50 was > 100 µM (inactive).

And the GI50 (ACHN)?
Its GI50 is > 100 µM (inactive).

And the GI50 (BT-549)?
Its GI50 is > 100 µM (inactive).

What about the GI50 (CAKI-1) of the same compound?
The GI50 was > 100 µM (inactive).

And the GI50 (CCRF-CEM)?
Its GI50 is > 100 µM (inactive).

What about the GI50 (COLO 205) of the same compound?
Its GI50 is 76.7 µM (inactive).

What about the GI50 (DU-145) of the same compound?
Its GI50 is > 100 µM (inactive).

What about the GI50 (EKVX) of the same compound?
Its GI50 is 61.7 µM (inactive).

What about the GI50 (HCC 2998) of the same compound?
The GI50 was > 100 µM (inactive).

What about the GI50 (HCT-116) of the same compound?
Its GI50 is > 100 µM (inactive).

And the GI50 (HCT-15)?
Its GI50 is over 100 µM.

What about the GI50 (HOP-62) of the same compound?
The GI50 was > 100 µM (inactive).

What about the GI50 (HT-29) of the same compound?
The GI50 was > 100 µM (inactive).

And the GI50 (Hs-578T)?
Its GI50 is > 100 µM (inactive).

What about the GI50 (IGROV-1) of the same compound?
Its GI50 is > 100 µM (inactive).

And the GI50 (K562)?
The GI50 was > 100 µM (inactive).

What about the GI50 (KM12) of the same compound?
The GI50 was > 100 µM (inactive).

What about the GI50 (LOX IMVI) of the same compound?
Its GI50 is > 100 µM (inactive).

And the GI50 (M14)?
The GI50 was > 100 µM (inactive).

And the GI50 (MCF7)?
The GI50 was > 100 µM (inactive).

What about the GI50 (MDA-MB-231) of the same compound?
Its GI50 is > 100 µM (inactive).

What about the GI50 (MDA-MB-435) of the same compound?
The GI50 was > 100 µM (inactive).

What about the GI50 (MDA-N) of the same compound?
Its GI50 is > 100 µM (inactive).

And the GI50 (MOLT-4)?
The GI50 was > 100 µM (inactive).

And the GI50 (Malme-3M)?
Its GI50 is > 100 µM (inactive).

And the GI50 (NCI-H226)?
The GI50 was > 100 µM (inactive).

What about the GI50 (NCI-H460) of the same compound?
The GI50 was > 100 µM (inactive).

And the GI50 (NCI-H522)?
Its GI50 is 49.2 µM (inactive).

What about the GI50 (NCI/ADR-RES) of the same compound?
Its GI50 is > 100 µM (inactive).

What about the GI50 (OVCAR-3) of the same compound?
The GI50 was > 100 µM (inactive).

And the GI50 (OVCAR-4)?
Its GI50 is > 100 µM (inactive).

What about the GI50 (OVCAR-5) of the same compound?
The GI50 was > 100 µM (inactive).

And the GI50 (OVCAR-8)?
The GI50 was > 100 µM (inactive).

And the GI50 (PC-3)?
The GI50 was > 100 µM (inactive).

What about the GI50 (RPMI-8226) of the same compound?
The GI50 was 91.2 µM (inactive).

What about the GI50 (RXF 393) of the same compound?
The GI50 was > 100 µM (inactive).

What about the GI50 (SF-268) of the same compound?
The GI50 was > 100 µM (inactive).

And the GI50 (SF-295)?
Its GI50 is > 100 µM (inactive).

What about the GI50 (SK-MEL-28) of the same compound?
Its GI50 is > 100 µM (inactive).

And the GI50 (SK-MEL-2)?
The GI50 was > 100 µM (inactive).

And the GI50 (SK-MEL-5)?
The GI50 was > 100 µM (inactive).

What about the GI50 (SK-OV-3) of the same compound?
The GI50 was > 100 µM (inactive).

And the GI50 (SN12C)?
Its GI50 is > 100 µM (inactive).

And the GI50 (SNB-19)?
The GI50 was > 100 µM (inactive).

What about the GI50 (SNB-75) of the same compound?
The GI50 was 22.2 µM (inactive).

What about the GI50 (SR) of the same compound?
Its GI50 is > 100 µM (inactive).

And the GI50 (SW-620)?
The GI50 was > 100 µM (inactive).

And the GI50 (T47D)?
Its GI50 is > 100 µM (inactive).

What about the GI50 (TK-10) of the same compound?
Its GI50 is > 100 µM (inactive).

And the GI50 (U-251)?
Its GI50 is > 100 µM (inactive).

What about the GI50 (UACC-257) of the same compound?
The GI50 was 46 µM (inactive).

What about the GI50 (UACC-62) of the same compound?
Its GI50 is > 100 µM (inactive).

And the GI50 (UO-31)?
Its GI50 is > 100 µM (inactive).
